Laboratory results reported in ChEMBL document CHEMBL3390847, “Boronic acids in medicinal chemistry: anticancer, antibacterial and antiviral applications” (Medchemcomm, 2010).
≈ marks a conversion by molar mass, not a printed value.

What was measured:
Staphylococcus aureus = assay: Antimicrobial activity against Staphylococcus aureus […] after 18 hrs by broth macrodilution assay; format: functional
[1] = system: Staphylococcus epidermidis; assay: Antimicrobial activity against Staphylococcus epidermidis ATCC 12228 after 18 hrs by broth macrodilution assay; format: functional; conditions: ATCC 12228, 18 h
Bacillus subtilis = assay: Antimicrobial activity against Bacillus subtilis ATCC 23857 after 18 hrs by broth macrodilution assay; format: functional; conditions: ATCC 23857, 18 h
[2] = Inhibition of YFV recombinant NS3 protease expressed in Escherichia coli using Bz-nKRR-AMC as substrate after 30 mins; design: species or system Yellow fever virus
Bacillus anthracis = assay: Antimicrobial activity against Bacillus anthracis; format: functional
[3] = molecular target: T1, Proteasome Macropain subunit MB1 (Homo sapiens, UniProt P28074); assay: Inhibition of chymotrypsin-like activity of proteasome beta5 subunit (unknown origin)
T1 sequence (P28074 whole entry): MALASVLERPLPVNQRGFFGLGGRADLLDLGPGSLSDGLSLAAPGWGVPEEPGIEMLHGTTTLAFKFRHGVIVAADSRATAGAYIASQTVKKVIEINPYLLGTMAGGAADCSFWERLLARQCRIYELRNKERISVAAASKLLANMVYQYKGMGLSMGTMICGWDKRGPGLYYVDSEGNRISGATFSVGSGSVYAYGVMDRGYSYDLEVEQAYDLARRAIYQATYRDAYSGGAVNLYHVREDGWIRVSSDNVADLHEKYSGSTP

[4] = molecular target: T2, Proteasome subunit beta type-7 (Homo sapiens, UniProt Q99436); assay: Inhibition of trypsin-like activity of proteasome beta7 subunit (unknown origin)
T2 sequence (Q99436 whole entry): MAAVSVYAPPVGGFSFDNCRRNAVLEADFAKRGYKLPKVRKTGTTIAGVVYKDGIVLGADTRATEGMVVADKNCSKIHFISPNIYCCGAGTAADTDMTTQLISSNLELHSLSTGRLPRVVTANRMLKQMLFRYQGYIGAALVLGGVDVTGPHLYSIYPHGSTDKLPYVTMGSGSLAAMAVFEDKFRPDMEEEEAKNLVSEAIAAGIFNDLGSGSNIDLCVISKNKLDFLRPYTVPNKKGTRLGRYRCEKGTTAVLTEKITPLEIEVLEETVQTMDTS

[5] = Inhibition of post-glutamyl peptide hydrolysis proteasome subunit (unknown origin); design: species or system Homo sapiens
[6] = Inhibition of AmpC beta-lactamase (unknown origin)
[7] = Inhibition of AmpC beta-lactamase N289A mutant (unknown origin)
[8] = Inhibition of TEM-1 (unknown origin)
[9] = Inhibition of TEM-30 (unknown origin)
B16 = assay: Cytotoxicity against mouse B16 cells; format: functional, cell-based
[10] = Cytotoxicity against human 1-87 cells; format: functional, cell-based
Tubulin [11] = assay: Inhibition of tubulin polymerization (unknown origin) after 30 mins; format: protein-complex assay, Homo sapiens
Moraxella catarrhalis = assay: Antimicrobial activity against Moraxella catarrhalis after 18 hrs by broth macrodilution assay; format: functional
[12] = molecular target: T3, Epidermal growth factor receptor (Homo sapiens, UniProt P00533); assay: Inhibition of EGFR kinase (unknown origin) using poly(Glu:Tyr) as substrate at 1 uM
T3 sequence (P00533 whole entry): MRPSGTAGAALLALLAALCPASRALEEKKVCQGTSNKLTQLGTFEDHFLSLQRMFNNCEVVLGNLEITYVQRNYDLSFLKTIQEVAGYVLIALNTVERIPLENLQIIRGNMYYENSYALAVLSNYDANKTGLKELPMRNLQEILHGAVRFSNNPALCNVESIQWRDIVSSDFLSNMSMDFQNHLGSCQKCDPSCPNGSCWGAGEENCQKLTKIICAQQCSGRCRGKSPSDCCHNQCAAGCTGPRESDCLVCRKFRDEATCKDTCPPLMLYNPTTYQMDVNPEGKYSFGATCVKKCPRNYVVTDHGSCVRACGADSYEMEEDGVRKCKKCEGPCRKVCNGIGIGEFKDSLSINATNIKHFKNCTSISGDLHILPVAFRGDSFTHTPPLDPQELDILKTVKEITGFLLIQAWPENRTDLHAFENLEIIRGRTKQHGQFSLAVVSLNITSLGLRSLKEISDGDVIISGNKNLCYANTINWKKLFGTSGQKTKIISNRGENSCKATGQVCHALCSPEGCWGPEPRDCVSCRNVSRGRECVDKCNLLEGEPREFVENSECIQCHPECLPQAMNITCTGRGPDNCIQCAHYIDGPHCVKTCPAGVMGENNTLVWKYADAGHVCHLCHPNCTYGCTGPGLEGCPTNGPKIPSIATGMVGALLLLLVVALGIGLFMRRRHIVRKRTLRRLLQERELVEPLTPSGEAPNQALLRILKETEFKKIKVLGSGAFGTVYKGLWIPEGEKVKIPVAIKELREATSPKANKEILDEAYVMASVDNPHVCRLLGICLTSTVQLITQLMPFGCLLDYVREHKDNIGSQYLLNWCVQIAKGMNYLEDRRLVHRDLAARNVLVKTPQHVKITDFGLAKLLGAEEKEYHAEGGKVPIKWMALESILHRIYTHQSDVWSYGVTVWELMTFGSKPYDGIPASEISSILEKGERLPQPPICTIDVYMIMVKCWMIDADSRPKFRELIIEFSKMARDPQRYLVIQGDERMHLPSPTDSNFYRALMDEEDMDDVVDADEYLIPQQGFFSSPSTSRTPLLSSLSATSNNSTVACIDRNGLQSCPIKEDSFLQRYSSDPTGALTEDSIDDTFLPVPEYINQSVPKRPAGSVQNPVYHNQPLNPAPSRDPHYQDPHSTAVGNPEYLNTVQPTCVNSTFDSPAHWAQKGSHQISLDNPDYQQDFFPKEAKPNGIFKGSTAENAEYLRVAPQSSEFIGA

[13] = molecular target: T3, Epidermal growth factor receptor; assay: Inhibition of EGFR kinase (unknown origin) using poly(Glu:Tyr) as substrate
A-431 = assay: Cytotoxicity against human A431 cells; format: functional
[14] = Inhibition of alpha-chymotrypsin (unknown origin); design: species or system Homo sapiens
MCF7 = assay: Cytotoxicity against human MCF7 cells; format: functional, cell-based
[15] = Inhibition of tubulin polymerization in rat A10 cells assessed as microtubule loss; format: cell-based
Tubulin [16] = assay: Inhibition of tubulin polymerization (unknown origin); format: protein-complex assay, Homo sapiens
[17] = Cytotoxicity against human MCF10A cells; format: cell-based; conditions: MCF-10A
[18] = Cytotoxicity against human MCF12A cells; format: cell-based; conditions: MCF-12A

Clc1ccc(C(Oc2cccc3cccnc23)c2ccc(Cl)cc2)cc1
MIC (Staphylococcus aureus): > 64 µg/mL | MIC [1]: > 64 µg/mL | MIC (Bacillus subtilis): > 64 µg/mL

CCCC[C@H](NC(=O)c1ccccc1)C(=O)N[C@@H](CCCCN)C(=O)N[C@@H](CCCCN)C(=O)N[C@@H](CCCNC(=N)N)B(O)O
Ki [2]: 50 nM

CC[C@H]1OC(=O)[C@H](C)[C@@H](O[C@H]2C[C@@](C)(OC)[C@@H](O)[C@H](C)O2)[C@H](C)[C@@H](O[C@@H]2O[C@H](C)C[C@H](N(C)C)[C@H]2O)[C@](C)(O)C[C@@H](C)C(=O)[C@H](C)[C@@H](O)[C@]1(C)O [ERYTHROMYCIN]
MIC90 (Bacillus anthracis): 1.5 µg/mL (≈ 2.04 µM)

CC(C)C[C@H](NC(=O)[C@H](Cc1ccccc1)NC(=O)[C@H](Cc1ccc2ccccc2c1)NC(=O)c1cnccn1)B1O[C@@H]2[C@H]3CC[C@H](C3(C)C)[C@]2(C)O1
IC50 [3]: 0.22 nM | IC50 [4]: > 20 nM | IC50 [5]: > 20 nM

O=C(Cc1cccs1)N[C@H](B(O)O)c1ccccc1
Ki [6]: 35 nM

CC(C)C[C@H](NC(=O)[C@H](Cc1ccccc1)NC(=O)[C@H](Cc1ccccc1)NC(=O)c1cnccn1)B1O[C@@H]2[C@H]3CC[C@H](C3(C)C)[C@]2(C)O1
IC50 [3]: 0.4 nM | IC50 [4]: > 20 nM | IC50 [5]: 8.33 nM

O=C(Cc1cccs1)N[C@H](B(O)O)c1cccc(C(=O)O)c1
Ki [6]: 1 nM | Ki [7]: 17 nM | Ki [8]: 64 nM | Ki [9]: 7800 nM

COc1cc(/C=C\c2ccc(B(O)O)cc2)cc(OC)c1OC
IC50 (B16): 2600 nM | IC50 [10]: 3200 nM | IC50 (Tubulin [11]): > 100000 nM

CC(=O)OCC1=C(C(=O)O)N2C(=O)[C@@H](NC(=O)Cc3cccs3)[C@H]2SC1 [CEPHALOTHIN]
Ki [6]: 320 nM

COc1ccc(/C=C\c2cc(OC)c(OC)c(OC)c2)cc1C(=O)O
IC50 (B16): 160000 nM | IC50 [10]: 110000 nM | IC50 (Tubulin [11]): > 100000 nM

Clc1cccc(B(Oc2cccc3cccnc23)c2cccc(Cl)c2)c1
MIC (Staphylococcus aureus): 1 µg/mL (≈ 2.65 µM) | MIC [1]: 2 µg/mL (≈ 5.29 µM) | MIC (Bacillus subtilis): 2 µg/mL (≈ 5.29 µM) | MIC (Moraxella catarrhalis): 2 µg/mL (≈ 5.29 µM)

CC(C)C[C@H](NC(=O)[C@H](Cc1ccc2ccccc2c1)NC(=O)[C@H](CC(C)C)NC(=O)c1cnccn1)B(O)O
IC50 [3]: 0.08 nM | IC50 [4]: > 20 nM | IC50 [5]: 3.63 nM

CC(C)C[C@H](NC(=O)[C@H](Cc1ccc(O)cc1)NC(=O)[C@H](Cc1ccccc1)NC(=O)c1cnccn1)B1O[C@@H]2[C@H]3CC[C@H](C3(C)C)[C@]2(C)O1
IC50 [3]: 0.34 nM | IC50 [4]: > 20 nM | IC50 [5]: 5.39 nM

OB(O)c1ccc(COc2ccc3ncnc(Nc4cccc(Cl)c4)c3c2)cc1
inhibition [12]: 55% | IC50 [13]: 850 nM | GI50 (A-431): 1820 nM

OB(O)c1ccccc1 [PHENYLBORONIC ACID]
Ki [14]: 196000 nM

COc1cc(/C=C\c2cccc(B(O)O)c2)cc(OC)c1
IC50 (B16): 1800 nM | IC50 [10]: 2000 nM | IC50 (Tubulin [11]): > 100000 nM

CC1(C)[C@H]2CC3OB(COc4ccc5ncnc(Nc6cccc(Cl)c6)c5c4)O[C@@]3(C)[C@@H]1C2 (stereo not given in full)
inhibition [12]: 65% | IC50 [13]: 200 nM | GI50 (A-431): 540 nM

COc1ccc(/C=C\c2cc(OC)c(OC)c(OC)c2)cc1O [COMBRETASTATIN A4]
IC50 (MCF7): 32 nM | EC50 [15]: < 25 nM | IC50 (B16): 4.6 nM | IC50 [10]: 8.5 nM

COc1cc(/C=C/C(=O)c2cc(OC)c(OC)c(OC)c2)ccc1B(O)O
IC50 (Tubulin [16]): 31000 nM | IC50 (MCF7): 900 nM | EC50 [15]: 16500 nM

COc1cc(/C=C/C(=O)c2cc(OC)c(OC)c(OC)c2)ccc1O
IC50 (Tubulin [16]): 2600 nM | IC50 (MCF7): 110 nM | EC50 [15]: 980 nM

O=C(/C=C/c1ccc(I)cc1)c1ccc(OCB(O)O)cc1
IC50 [17]: 38000 nM | IC50 [18]: 100000 nM
